Test results reported in patent US12331302B2, “Fungal autoinducible expression system” (priority 2019, dated 2025).

B1: Bar1: α-factor degrading protease (protein, UniProt P12630 25-587, looked up)
Barrierpepsin: LTNDGTGHLEFLLQHEEEMYYATTLDIGTPSQSLTVLFDTGSADFWVMDSSNPFCLPNSNTSSYSNATYNGEEVKPSIDCRSMSTYNEHRSSTYQYLENGRFYITYADGTFADGSWGTETVSINGIDIPNIQFGVAKYATTPVSGVLGIGFPRRESVKGYEGAPNEYYPNFPQILKSEKIIDVVAYSLFLNSPDSGTGSIVFGAIDESKFSGDLFTFPMVNEYPTIVDAPATLAMTIQGLGAQNKSSCEHETFTTTKYPVLLDSGTSLLNAPKVIADKMASFVNASYSEEEGIYILDCPVSVGDVEYNFDFGDLQISVPLSSLILSPETEGSYCGFAVQPTNDSMVLGDVFLSSAYVVFDLDNYKISLAQANWNASEVSKKLVNIQTDGSISGAKIATAEPWSTNEPFTVTSDIYSSTGCKSRPFLQSSTASSLIAETNVQSRNCSTKMPGTRSTTVLSKPTQNSAMHQSTGAVTQTSNETKLELSSTMANSGSVSLPTSNSIDKEFEHSKSQTTSDPSVAEHSTFNQTFVHETKYRPTHKTVITETVTKYSTVLINVCKPTY

Columns and labels:
Format in all cases: cell-based, Saccharomyces cerevisiae
FUS1 promoter (pFUS1) = assay: mCherry expression under control of pFUS1, with or without α-factor; conditions: after 24 h, culture with addition of 5 μM α-factor
Experimental: (§1) Pre-cultures are prepared by inoculation of biological triplicates in CSM with appropriate amino acid drop out, and are grown for two days at 30° C., 250 rpm. Thereafter, they are inoculated to an OD of 0.05 in two duplicate tubes, whereof one is induced with 5 μM α-factor. Strains are grown at 30° C., 250 rpm for 24 h and samples are taken for flow cytometry after 0, 8 and 24 h. For characterization of strains with endogenous α-factor production, transformation plates and pre-culture media is supplemented with 5 μg/mL doxycycline. The pre-cultures are washed to remove Bar1 and doxycycline prior to inoculation. OD is measured at 600 nm and GFP and mCherry production is measured with a BD Accuri™ C6 flow cytometer from Becton, Dickinson and Company (Franklin Lakes, NJ, USA).
(§2) To test the initial system configuration, pFUS1-Cre and pTEF1-loxP-GFP-loxP-mCherry is transformed into strain JL275 (BY4741 MATa Δbar1 Δfar1). Precultures are grown for two days in CSM-ura-leu. Each replicate is used to inoculate two cultures, whereof one is induced with 5 μM α-factor. Fluorescence is measured after 0, 8 and 24 h. […] This indicated a high basal level expression from the FUS1 promoter, leading to leaky expression of Cre recombinase and early recombination. To investigate this hypothesis, mCherry is cloned under control of pFUS1 and mCherry expression is measured at 0 and 24 h. […]

[1] = system: Ste2 receptor / pFUS1J2-ubiM-Cre circuit in strain JL275; assay: Strain characterization: GFP and mCherry production by flow cytometry after α-factor induction of the Cre/loxP circuit; conditions: JL275 with pFUS1J2-ubiM-Cre and pTEF1-loxP-GFP-loxP-mCherry
Experimental: as §1, §2

strains JL277-JL280 = assay: Autoinducible strains with endogenous α-factor production, fluorescence by TECAN plate reader; conditions: JL277-280 with pFUS1J2-ubiM-Cre pTDH3-rtTA pTETO3-BAR1 and pTEF1-loxP-GFP-loxP-mCherry; with or without 5 μM α-factor
Experimental: To establish autoinducible strains, the α-factor-expressing gene MFα1 under control of four different native promoters with different expression strengths (pTDH3, pPGK1, pYEF3 and pACT1) is integrated into locus p416d into the genome of JL275, resulting in strains JL277-JL280, respectively. The strains are transformed with plasmids pFUS1J2-ubiM-Cre pTDH3-rtTA pTETO3-BAR1 and pTEF1-loxP-GFP-loxP-mCherry, inoculated into CSM-ura-leu supplemented with 5 μg/mL doxycycline and pre-cultured for two days. The pre-cultures are washed and inoculated to an OD of 0.05, and grown with or without 5 μM α-factor to compare endogenous and external inducibility. The strain fluorescence is measured with a TECAN plate reader. […] The strain also continued to produce GFP unless α-factor is added. This experiment is to be repeated according to the previously established strain characterization protocol and measured with a flow cytometer.

[2] = system: pTETO3-BAR1 control module in strain JL275; assay: Functionality of doxycycline-inducible BAR1 expression (supernatant/α-factor mix); conditions: supernatant mixed with 600 μM α-factor, 30° C., 4 h
Experimental: The functionality of Bar1 expression is investigated by transforming JL275 with pFUS1J2-ubiM-Cre pTDH3-rtTA pTETO3-BAR1 or control plasmid pFUS1-Cre. Both strains are inoculated in media with or without 5 μg/mL doxycycline, and are grown to stationary phase where after they are spun down. 0.5 mL supernatant is mixed with 0.5 mL 600 μM α-factor and incubated at 30° C. for 4 h. A corresponding amount of 5 μM α-factor (assuming no α-factor has been degraded) from each supernatant/α-factor incubation mix is used to induce cultures of JL275 with pFUS1J2-ubiM-Cre and pTEF1-loxP-GFP-loxP-mCherry (FIG. 4A). 0 and 5 μM α-factor are used as controls.

Molecule | mCherry expression from pFUS1 compared to the background strain autofluorescence (FUS1 promoter (pFUS1)) | System titratability (mCherry output) ([1]; 0, 0.1, 0.5, 1, 5 or 10 μM α-factor) | GFP to mCherry production shift ([1]; 5 μM α-factor, 0, 8 and 24 h) | mCherry production induction (strains JL277-JL280) | Degradation of α-factor by supernatant [2]
α-factor | approximately 20 fold | mCherry output correlating to the amount of α-factor added | clear shift from GFP to mCherry production | barely induced unless α-factor is added | 
B1 |  |  |  |  | functional and degrades α-factor
